The NIST ThermoML archive (doi:10.1021/acs.jced.9b00179)
Numbers after ± are expanded uncertainties.

Legend:
[1] = refractive index (Na D-line) (dimensionless); details: 293.15 K; 101.33 kPa; Liquid; Standard Abbe refractometry
[2] = Crystal; DSC
[3] = Molar enthalpy of transition or fusion; details: Crystal; DSC

Row | SMILES | refractive index [1] | Triple point temperature [2] [K] | Molar enthalpy of transition or fusion [3] [kcal/mol]
1 | CCC(C)=O [butanone] | 1.379 ± 0.0011 |  | 
2 | C[S+](C)[O-] [dimethyl sulfoxide] | 1.4791 ± 0.0011 |  | 
3 | CN(C)C=O [dimethylformamide] | 1.4303 ± 0.001 |  | 
4 | CCCCO [butan-1-ol] | 1.3986 ± 0.0011 |  | 
5 | O=C(O)c1ccccc1 [benzoic acid] |  | 396.8 ± 1 | 4.19 ± 0.43
6 | CC(C)CO [2-methyl-1-propanol] | 1.3957 ± 0.0011 |  | 

The remaining lines, values ahead:

Row | refractive index [1] | Triple point temperature [2] [K] | Molar enthalpy of transition or fusion [3] [kcal/mol] | SMILES
7 |  | 444.6 ± 1 | 11.4 ± 1.17 | CC[C@@H]([C@H](C)O)n1ncn(-c2ccc(N3CCN(c4ccc(OC[C@@H]5CO[C@@](Cn6cncn6)(c6ccc(F)cc6F)C5)cc4)CC3)cc2)c1=O [posaconazole]
8 |  | 403.4 ± 1 | 6.43 ± 0.645 | C[C@@H](c1ncncc1F)[C@](O)(Cn1cncn1)c1ccc(F)cc1F [voriconazole]
9 | 1.3613 ± 0.0011 |  |  | CCO [ethanol]
10 | 1.3331 ± 0.001 |  |  | O [water]
11 | 1.3852 ± 0.001 |  |  | CCCO [propan-1-ol]
12 | 1.3774 ± 0.0011 |  |  | CC(C)O [propan-2-ol]
13 | 1.3892 ± 0.0011 |  |  | CCCC(C)=O [pentan-2-one]
